# Assays:
# [1] = tested on: C. albicans clinical reference strain SC5314; assay: Adenylate kinase (AK) release assay of yeast cell lysis; type: cell-based, Candida albicans; parameters: dose or concentration left out as unconfirmed; conditions: extracellular AK activity relative to DMSO-treated cells
# Description: AK assays were performed according to a recently published protocol (Didone et al., Nat. Protocol. 5:1107-14 (2010)) using the 96-well plate version using the Toxi-Light Assay kit (Lonza; Basel, Switzerland). Luminescence was measured using a SpectraMax plate reader (Molecular Devices; Sunnyvale, Calif.). […] To identify PKIs that disrupt yeast cell wall integrity, a four-part screening strategy as outlined in FIG. 1A was designed. The primary screen in the approach detects molecules that cause yeast cells to lyse, a characteristic phenotype of yeast cell wall damage, by use of an assay that detects the release of adenylate kinase (AK) to the growth medium as a reporter of yeast cell lysis. […] Last, to select PKIs specific for the CWI signaling pathway, the set of hits were tested for their ability to block the activation of a transcriptional reporter of the CWI-signaling pathway. To rapidly survey a sample of well-characterized PKIs, the commercially available InhibitorSelect collection, a library of 80 PKIs with diverse mechanistic and structural characteristics, was utilized. C. albicans clinical reference strain SC5314 was screened against the InhibitorSelect library for molecules that caused a release of AK into the growth medium.
# C. albicans cells = assay: Propidium iodide uptake; type: cell-based, Candida albicans; conditions: KP-372-1 at MIC, 2 hours
# Description: Bars indicate mean fold change in Miller units of β-galactosidase activity relative to logarithmic phase cells without calcofluor or PKI. Error bars indicate standard deviation of three independent trials performed in triplicate. […] The percentage of cells with PI uptake was determined by fluorescence.
# A hallmark phenotype of mutations and drugs that interfere with CWI signaling is that their effects can be suppressed by the addition of osmotic support such as 1M soribitol to the culture medium. By equalizing the osmotic gradient across the plasma membrane, cell integrity is less dependent upon an intact cell wall.
# C. neoformans = assay: Antifungal susceptibility (microdilution MIC), C. neoformans; type: cell-based, Cryptococcus neoformans
# Description: (§1) The antifungal activity of protein kinase inhibitors was determined using the Clinical and Laboratory Science Institute microdilution protocol M-27A2. Biofilm antifungal activity was determined using the protocol of Pierce et al. and is reported as MIC50S (Pierce et al., Nat. Protoc. 3:1494-1500 (2008)). Disk diffusion assays were performed as described previously (Roelants et al., Microbiology 150:3289-304 (2004)).
# (§2) (FIG. 3A). […] Since the echinocandin class of cell wall-targeted 1,3-β-glucan synthase inhibitors is not active against C. neoformans, this represents one of the few cell wall-targeted molecules with activity against this important pathogen.
# [2] = tested on: Pkh1/2-dependent phosphorylation of Pil1-GFP; assay: Pil1-GFP phosphorylation immunoblot; type: cell-based, S. cerevisiae; conditions: sub-inhibitory KP-372-1 (1/2 MIC); cells with endogenous Pkh1/2 and cells over-expressing Pkh2; Western blot
# Description: Cells were harvested at the indicated times and analyzed by Pil1-GFP immunoblotting. Pil1-P corresponds to the Pkh1/2-dependent phosphorylated Pil1 species.
# Western blot analysis of Pil1-GFP was performed essentially as described (Luo et al., J. Biol. Chem. 283:10433-44 (2008)). Briefly, Pil1-GFP containing cells were harvested and lysed using the SDS-PAGE sample buffer method. Extracts corresponding to equivalent numbers of cells were fractionated by SDS-PAGE electrophoresis on 7% gels, transferred to nitrocellulose and blocked overnight in 50 mM Tris pH 7.5/150 mM NaCl/0.05% (v/v) Tween-20+5% (w/v) non-fat skim milk. Pil1-GFP was detected using mouse anti-GFP (1:10,000 dilution, Clontech Living Colors) (Clontech; Mountain View, Calif.) as primary and goat anti-mouse antibodies conjugated with horse-radish peroxidase (1:10,000) followed by visualization with ECL-Plus reagents (Amersham; Piscataway, N.J.).
# S. cerevisiae strains containing a chromosomally-integrated PIL1-GFP allele were transformed with a vector control or a plasmid expressing PKH2 under the control of a galactose-inducible promoter. […] The phosphorylation status of Pil1-GFP was followed over a 3.5 hour time course by Western blot.
# Candida spp. = assay: Antifungal susceptibility (microdilution MIC), Candida spp.; type: cell-based
# Description: as §1, §2
# [3] = tested on: fluid-phase endocytosis in S. cerevisiae; assay: Lucifer yellow (LY) endocytosis assay; type: cell-based; conditions: sub-lethal KP-372-1, 1 hour pre-treatment, 1 hour time course
# Description: LY uptake assays were performed as described previously (Dulic et al., Methods Enzymol. 194:697-710 (1991)) using LY obtained from Sigma (St. Louis, Mo.). […] Cells were then exposed to LY and aliquots were removed at 15 minute intervals. Endocytosis was stopped by the addition of sodium azide/succinate and the percentage of cells with vacuolar LY staining was determined by fluorescence microscopy.
# Pkh kinases are also important for endocytosis in yeast. […] LY binds to the plasma membrane and is transported to the vacuole (yeast lysosomal homolog) in PKH-dependent fashion.
# [4] = tested on: S. cerevisiae pkh and ypk mutants; assay: Disk diffusion assay, S. cerevisiae mutants; type: cell-based
# Description: Plates were incubated at 30° C. for 3 days prior to photography.
# as §1
# Heterozygous diploid yeast mutants lacking one allele of the gene encoding a putative drug target are frequently hypersensitive to the effects of that drug. This is called drug-induced haploinsufficiency. Similarly, if a drug targets the products of two redundant genes, then deletion of one of those genes in a haploid yeast strain will hypersensitize the strain to that drug. […] Pkh1/2 phosphorylates two other AGC protein kinases involved in yeast cell wall integrity, Ypk1&2.
# normal cells = conditions: cited from earlier work
# C. albicans [5] = assay: Checkerboard interaction assay (FIC); type: cell-based, Candida albicans
# Description: This assay allows one to compare the activity of a molecule alone and in combination with another molecule by generating a fractional inhibitory concentration (FIC). FIC for two drugs (A & B) is calculated as follows: […]. FIC values less than 0.5 are considered synergistic; between 0.5 and 1 are additive; between 1-2 are indifferent; and above 2 are antagonistic. […] Therefore, KP-372-1 is not synergistic with either agent.
# C. glabrata = assay: Antifungal susceptibility (microdilution MIC), C. glabrata; type: cell-based, Candida glabrata
# Description: as §1, §2
# C. albicans [6] = assay: Antifungal susceptibility (microdilution MIC), C. albicans; type: cell-based, Candida albicans
# Description: as §1
# To identify PKIs that disrupt yeast cell wall integrity, a four-part screening strategy as outlined in FIG. 1A was designed. The primary screen in the approach detects molecules that cause yeast cells to lyse, a characteristic phenotype of yeast cell wall damage, by use of an assay that detects the release of adenylate kinase (AK) to the growth medium as a reporter of yeast cell lysis. Previously it was shown that the AK assay in HTS format can detect as few as 500 lysed yeast cells in a sample of 10^5 cells (Didone et al., Nat. Protocol. 5:1107-14 (2010)). PKIs that cause yeast cells lysis (hits) were then re-confirmed by AK dose-response assays and tested for in vitro antifungal activity against the human fungal pathogen C. albicans using standard microdilution susceptibility testing. Last, to select PKIs specific for the CWI signaling pathway, the set of hits were tested for their ability to block the activation of a transcriptional reporter of the CWI-signaling pathway. […]
smiles,measurement,setting,value
O=C1c2ccccc2-c2nc3nnnn3nc21.O=C1c2ccccc2-c2nn3nnnc3nc21 [KP-372-1],Fold increase in AK release,[1],4 Fold
same,cells stained by propidium iodide relative to YPD,C. albicans cells; 1M sorbitol-supplemented YPD,five-fold fewer cells were stained
same,percentage of cells stained by propidium iodide,"C. albicans cells; 37° C., YPD",36%
same,antifungal activity (in words),C. neoformans,highly active
same,phosphorylation of Pil1-GFP,[2],rapidly blocked
same,MIC,"Candida spp.; Candida spp., FIG. 7 legend",3 to 25 µg/mL
same,antifungal activity (in words),Candida spp.; other Candida spp. compared with C. albicans and C. glabrata,less so
same,Lucifer yellow uptake (vacuolar localization),[3],uptake is inhibited at early time points
same,zone of inhibition versus wild type,"[4]; S. cerevisiae pkh2D mutant, compared with wild type or pkh1D",larger zone of inhibition
same,sensitivity versus wild type,[4]; S. cerevisiae ypk1D and ypk2D mutants,as sensitive to KP-372-1 as wild type
same,cytotoxicity toward normal cells,normal cells,without significant cytotoxicity
same,FIC (fractional inhibitory concentration),C. albicans [5]; combination with caspofungin,0.5
same,FIC (fractional inhibitory concentration),C. albicans [5]; combination with fluconazole,1.0
same,antifungal activity (in words),C. glabrata,highly active
same,antifungal activity (in words),C. albicans [6]; C. albicans,highly active
same,MIC,"C. albicans [6]; C. albicans growth assay, Table 1",3 µg/mL
